Reference: patent publication US20040019429A1, “Methods and systems for analyzing complex biological systems” (priority 2001, published 2004)

Tests used:
[1] = system: Arabidopsis thaliana plants; assay: SOA1 phenotypic analysis of herbicide-treated plants (MIC, Tmic, leaf traits, symptom class); type: in vivo; settings: for Characteristic symptoms of treated plants (in words): SOA1 phenotypic analysis
Arabidopsis thaliana [2] = assay: MOA1 phenotypic profiling of sprayed plants (eleven phenotypic characteristics); type: in vivo; settings: hierarchical cluster analysis of eleven phenotypic characteristics
[3] = system: Saccharomyces cerevisiae wild type strain BY4743; assay: AF1 yeast metabolite analysis by GC-MS and LC-MS after antifungal drug treatment; type: cell-based; settings: for # Compounds perturbed by treatment: 2X MIC, two hours
yeast cells = assay: AF1 combined gene expression and metabolite data mapped to KEGG reactions and pathways; set-up: species or system Saccharomyces cerevisiae
Description: The pathway score indicates how meaningful the mapping is, or how likely it is to be correctly indicative of the pathway involved in the perturbation under examination. The method provides a pathway score based on perturbation levels of genes and/or compounds and the information content of each gene and/or compound in the pathway, i.e., a pathway score indicates the extent to which other pathways are mapped to a gene/compound. For example, imagine that two genes are perturbed in a particular experiment. One gene maps to only one pathway, giving a high degree of probability that the perturbed pathway is the one identified in the mapping. The second gene maps to three pathways. In the later example, there is only one-third the probability that the pathway identified in the mapping is the one perturbed. […] Degree of perturbation can be calculated, for example, based on a number of standard deviations from a norm, and included in an equation such as the one shown above, so that not only the number of pathways is taken into account, but also accounts for the amount of gene transcript, or compound present as compared to a control. […] KEGG links 676 compounds measured in AF1 to a total of 92 pathways. Of the 676 compounds under consideration, 77 were detected in the AF1 samples. […]

Arabidopsis thaliana [4] = assay: MOA1 biochemical (metabolite) profiling by LC-MS and GC-MS; settings: 20 minutes and 1 hour after spraying
Magnaporthe grisea = type: cell-based
Arabidopsis thaliana [5] = assay: MOA1 gene expression profiling (arrays of 22,000 Arabidopsis genes); settings: 1 hr
[6] = numeric value standardized to mock treated plants, SOA1

Nc1nc[nH]n1 [Amitrole]
Characteristic symptoms of treated plants (in words) [1]: leaf bleaching and leaf enlargement | Phenotype and phenotypic clustering (in words) (Arabidopsis thaliana [2]): exhibited chlorosis and not true bleaching

C[C@@H]1[C@H](O)[C@@H](C)/C=C/C=C/C=C/C=C/C=C/C=C/C=C/[C@H](O[C@@H]2O[C@H](C)[C@@H](O)[C@H](N)[C@@H]2O)C[C@@H]2O[C@](O)(C[C@@H](O)C[C@@H](O)[C@H](O)CC[C@@H](O)C[C@@H](O)CC(=O)O[C@H]1C)C[C@H](O)[C@H]2C(=O)O [Amphoteracin B]
# Compounds perturbed by treatment ([3]; P < 0.05): 16 | # Compounds perturbed by treatment ([3]; P < 0.1): 21 | Fold Change, abscisic acid ([3]; platform LC): 0 | Fold Change, adenosine ([3]; platform LC): 0 | Fold Change, riboflavin ([3]; platform LC): 0 | Fold Change, selenoOLmethionine ([3]; platform nLC): 0.8515 | Number Of Pathways Having at Least One Enzyme and One Compound Perturbed (# Reactions) (yeast cells): 37 | Number of Reactions Having an Enzyme and at Least One Compound Perturbed (yeast cells): 54

CCSC(=O)N(CC(C)C)CC(C)C [Butylate]
Phenotype and phenotypic clustering (in words) (Arabidopsis thaliana [2]): neither showed a strong herbicidal phenotype | Regulated metabolites relative to control (in words) (Arabidopsis thaliana [4]): neither butylate nor chlorpropham treatment resulted in many changes in these commonly regulated metabolites

CC(C)OC(=O)Nc1cccc(Cl)c1 [Chloropropham]
Phenotype and phenotypic clustering (in words) (Arabidopsis thaliana [2]): neither showed a strong herbicidal phenotype | Regulated metabolites relative to control (in words) (Arabidopsis thaliana [4]): neither butylate nor chlorpropham treatment resulted in many changes in these commonly regulated metabolites

CP(=O)(O)CCC(N)C(=O)O (stereo not drawn) [Glufosinate]
Characteristic symptoms of treated plants (in words) [1]: Chlorosis and leaf curling | leafCurling (Dev.) [1, 6]: 2 | leafTwisting (Dev.) [1, 6]: 1 | leafWidth (Dev.) [1, 6]: −2 | matureLeafAnthocyanins (Dev.) [1, 6]: 0 | matureLeafChlorosis (Dev.) [1, 6]: 3 | matureLeafNecrosis (Dev.) [1, 6]: 0 | newLeafAnthocyanins (Dev.) [1, 6]: 0 | newLeafChlorosis (Dev.) [1, 6]: 3 | newLeafNecrosis (Dev.) [1, 6]: 0 | pointedLeaves (Dev.) [1, 6]: 1 | tMic (Dev.) ([1]; score for time to full range of symptoms at the MIC, SOA1): 1 | Growth of M. grisea on various nitrogen sources, Tier 4 (Magnaporthe grisea): only able to utilize glutamine and glutamate as nitrogen sources | Regulated metabolites relative to control (in words) (Arabidopsis thaliana [4]): Only a few, if any, stress-related metabolites were observed | Regulated Genes Following Herbicide Treatment: Down (Arabidopsis thaliana [5]; p < 0.5, number of genes of 22,000): 54 | No. of Lethal Genes Altered (Arabidopsis thaliana [5]; altered genes identified as essential for plant growth in internal database): 10
